Results as given in ChEMBL document CHEMBL1201862, “PubChem BioAssay data set” (2004).
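Step 1: Grow cells in 96-well plates. Step 2: Expose to compound for 48 hours at 5 concentrations. Step 3: Interpolate endpoints linearly; if unreached, use highest concentration. GI50 = concentration required for 50% inhibition of growth.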 The source made the active and inactive calls. Cut-off read from the data, not from the text of the source: active = GI50 up to about 1.1 µM and inactive = higher.

Legend:
Assay in all cases: NCI tumour cell line growth inhibition, 48 h
786-0 = tested on: 786-0
A549 = tested on: A549
BT-549 = tested on: BT-549
CAKI-1 = tested on: CAKI-1
COLO 205 = tested on: COLO 205
EKVX = tested on: EKVX
HCC 2998 = tested on: HCC 2998
HL-60 = tested on: HL-60
Hs-578T = tested on: Hs-578T
LOX IMVI = tested on: LOX IMVI
M19-MEL = tested on: M19-MEL
MDA-MB-231 = tested on: MDA-MB-231
NCI/ADR-RES = tested on: NCI/ADR-RES
OVCAR-4 = tested on: OVCAR-4
RXF 393 = tested on: RXF 393
SK-MEL-28 = tested on: SK-MEL-28
SW-620 = tested on: SW-620
T47D = tested on: T47D
U-251 = tested on: U-251
UACC-257 = tested on: UACC-257

Row | Structure (SMILES) | GI50 (786-0) | GI50 (A549) | GI50 (BT-549) | GI50 (CAKI-1) | GI50 (COLO 205) | GI50 (EKVX) | GI50 (HCC 2998) | GI50 (HL-60) | GI50 (Hs-578T) | GI50 (LOX IMVI) | GI50 (M19-MEL) | GI50 (MDA-MB-231) | GI50 (NCI/ADR-RES) | GI50 (OVCAR-4) | GI50 (RXF 393) | GI50 (SK-MEL-28) | GI50 (SW-620) | GI50 (T47D) | GI50 (U-251) | GI50 (UACC-257)
1 | COc1cccc2c1C(=O)c1c(O)c3c(c(O)c1C2=O)C[C@@](O)(C(C)=O)C[C@@H]3OC1CC(O)C(O)C(C)O1 (stereo not given in full) | 1570 nM (inactive) | 465 nM (active) | 3330 nM (inactive) | 789 nM (active) | 2050 nM (inactive) | 6670 nM (inactive) | 918 nM (active) | 50.1 nM (active) | 998 nM (active) | 590 nM (active) | 1600 nM (inactive) | 8650 nM (inactive) | 360 nM (active) | 3810 nM (inactive) | 1170 nM (inactive) | 6080 nM (inactive) | 536 nM (active) | 2820 nM (inactive) | 359 nM (active) | 3790 nM (inactive)
2 | Cc1cc(O)c2c(c1)C[C@@H](O)C1=C2C(=O)c2c(O)ccc(OC3CC(O)C(OC4CC(OC5CCC(OC6CC(O)C(OC7CC(OC8CCC(O)C(C)O8)C(O)C(C)O7)C(C)O6)C(C)O5)C(O)C(C)O4)C(C)O3)c2C1=O (stereo not given in full) | 64.4 nM (active) | 302 nM (active) | 327 nM (active) | 138 nM (active) | 48.8 nM (active) | 112 nM (active) | 105 nM (active) | 36.4 nM (active) | 31.1 nM (active) | 42.6 nM (active) | 4.11 nM (active) | 171 nM (active) | 30.8 nM (active) | 17.9 nM (active) | 68.7 nM (active) | 70 nM (active) | 38.1 nM (active) | 167 nM (active) | 38.7 nM (active) | 110 nM (active)
